# Experiments:
# [1] = PET, rats, 60 min after injection, mean ± SEM, four rats
# Description: Emission scans were acquired in three-dimensional list mode with an energy window of 350–650 keV under isoflurane anesthesia, from 0 to 60 min after radioprobe administration. All list-mode acquisition data were sorted into three-dimensional sinograms, which were then Fourier-rebinned into two-dimensional sonograms (frames × min: 4 × 1, 8 × 2, 8 × 5), and corrections for scanner dead time, randoms, and decay of the injected radioprobe. Dynamic images were reconstructed with filtered back-projection using a Hanning filter and a Nyquist cut-off of 0.5 cycles/pixel. Immediately after completion of PET scans, contrast-enhanced CT scans were performed in the rats by using the small-animal CT system (R_mCT2; Rigaku, Tokyo) after injection of 1 mL of non-ionic contrast medium (Iopamiron 370, Bayer, Osaka). The scan conditions included radiation parameters of 200 μA and 90 kV, FOV of 60 mm, and acquisition time of 34 s. CT images were collected, reconstructed, and observed using I-View-R software (Rigaku, The Woodlands, TX). Averaged CT attenuation images and dynamic PET images were reconstructed and fused using the Siemens Inveon Research Workplace (IRW) 4.0 software.
# Regions of interest (ROI) in major organs and tissues were drawn in the PET/CT fusion images by manual outlining the organs and tissues in the CT images throughout the image slices by using IRW 4.0 software. The average radioactivity concentration was obtained from mean pixel values in the ROI volume. Regional uptake of radioactivity was decay-corrected to the injection time and expressed as the standardized uptake value (SUV), normalized for injected radioactivity and body weight. SUV was calculated as SUV = (radioactivity per cubic centimeter tissue/injected radioactivity) × body weight in grams. TACs of the radioprobes in individual organ and tissue were determined. Values of area under time-activity curves (AUC2–60 min, SUV × min) were calculated from 2 to 60 min post-injection to minimize the early perfusion effects.
# [2] = Ex vivo biodistribution studies; details: SD rats, 60 min after injection, mean ± SEM, n = 4
# From the text: Major organs and tissues (blood, heart, lung, liver, pancreas, spleen, kidney, intestine, muscle, and brain), were promptly excised, harvested, and weighed. Radioactivity was counted using a γ-counter and expressed as a percentage of the injected dose per gram of wet tissue (%ID/g). All radioactivity measurements were corrected for decay.
smiles,measurement,setting,value
"Cn1cc(C[C@H](N)C(=O)O)c2ccccc21 [L-1MTrp, 1-Methyl-L-tryptophan, reference compound]",SUV in the pancreas,[1],2.28
same,"Biodistribution, radioactivity in Pancreas",[2],2.27 %ID/g tissue

# — paper PMC4639751, “Development of 1-N-^11C-Methyl-L- and -D-Tryptophan for pharmacokinetic imaging of the immune checkpoint inhibitor 1-Methyl-Tryptophan” (Scientific Reports, 2015)
